For one compound, Activity and Blood volume results are on record in ChEMBL document CHEMBL1134182, “Modified synthesis and antiangiogenic activity of linomide” (2001).

Test [1] relates to Mus musculus. Briefly: In vivo effect of compound on VEGF-induced angiogenesis in blood vessels of mice. In kind it is functional.
Test [2] has as its system Mus musculus. Briefly: In vivo effect of compound on VEGF-induced angiogenesis in blood volume of mice. In kind it is functional.

Molecules are shown by their SMILES.

The compound `CN(C(=O)c1c(O)c2ccccc2n(C)c1=O)c1ccccc1` [ROQUINIMEX] returned an Activity in test [1] below 3.48%. The compound also came in with a Blood volume in test [2] below 0.33 HB g ml-1.
